In publication PMC5904360, “Soluble N-Ethylmaleimide-Sensitive Factor Attachment Protein Receptor-Derived Peptides for Regulation of Mast Cell Degranulation” (Frontiers in Immunology, 2018):

Assays:
RBL-2H3 mast cells [1] = assay: Degranulation assay, β-hexosaminidase release; type: cell-based, rat; details: for inhibition of mast cell degranulation with versus without A23187 pretreatment: PTD-conjugated peptides, read-outs β-hexosaminidase and histamine (Figure 4B); for reduction of β-hexosaminidase release: 10 µM PTD-fused peptide without SLO (LY294002 as positive control), DNP-BSA stimulation, no A23187 pretreatment, three independent experiments (Figure 2A gray bars, 2C)
[2] = target: T1, SN23-Syn4-Vp2 SNARE complex (Rattus norvegicus, UniProt O70377+P63045+Q08850); assay: SNARE-driven membrane fusion (total lipid mixing) assay with proteoliposomes; type: biochemical; details: for inhibition of membrane fusion, peptide added after preincubation: peptide added after preincubation of T- and V-liposomes at 4°C overnight (partially zippered SNAREs) (Figure 4A); for inhibition of membrane fusion, peptide added before preincubation: peptide added before preincubation of T- and V-liposomes at 4°C overnight (Figure 4A)
T1 construct: Syn4 (amino acids 1–298); SNAP-23 (amino acids 1–210); full-length VAMP2 (VpF, amino acids 1–116); GST (N, cleaved yes); made in house; host or cells: Escherichia coli Rosetta(DE3)pLysS
Text: (§1) Total RNA was obtained from RBL-2H3 cells using TRIzol® Reagent (#15596026, Invitrogen, Carlsbad, CA, USA) and served as a template for cDNA synthesis with M-MLV reverse transcriptase (M1705, Promega, Madison, WI, USA) according to the manufacturer’s protocol. The cDNAs amplified for rat Syn4, SNAP-23, VAMP2, VAMP4, VAMP7, and VAMP8 using each primer pair ([4]), were cloned into the pGEX-4T 1 vector. The mast cell SNARE proteins [Syn4 (amino acids 1–298), SNAP-23 (amino acids 1–210), full-length VAMP2 (VpF, amino acids 1–116), VAMP4 (amino acids 1–141), and VAMP8 (amino acids 1–100)] were expressed in Escherichia coli Rosetta(DE3)pLysS (#70956, Novagen, Darmstadt, Germany) and purified as glutathione-S-transferase-tagged fusion proteins as reported previously ([8]).
(§2) To prepare the unilamellar liposomes, a 50-mM lipid mixture of palmitoyl-2-oleoylphosphatidylcholine (POPC) (#850457, Avanti Polar Lipids, Alabaster, AL, USA):1,2-dioleoyl-phosphatidylserine (DOPS) (#840035, Avanti Polar Lipids) at 65:35 mol% was dried in a glass tube under a gentle stream of nitrogen gas and then exposed to a vacuum overnight. The resultant lipid film was resuspended in dialysis buffer (25 mM HEPES and 100 mM KCl, pH 7.4) by vortexing, followed by an extrusion step with polycarbonate membrane filters having a pore size of 100 nm (#610005, Avanti Polar Lipids). To prepare proteoliposomes, binary T-SNAREs, which were pre-formed by mixing Syn4 and SNAP-23 at room temperature for 60 min, were incubated with 50 mM unilamellar liposomes for 15 min at the same temperature, resulting in a 50:1 lipid/protein molar ratio ([9]).
(§3) For the preparation of V-SNARE proteoliposomes, a 10-mM premixed lipid solution [POPC:DOPS:N-(7-nitro-2-1,3-benzoxadiazol-4-yl (NBD))-phosphatidylserine (#810198, Avanti Polar Lipids):[…] (#810150, Avanti Polar Lipids) = 62:35:1.5:1.5 (molar ratio)] was used for the preparation of fluorescent liposomes in the same manner as above. The prepared liposomes were then mixed with VAMP2 for 15 min at room temperature. The liposome/protein mixture was diluted twice to bring the concentration of n-octyl glucoside (O8001, Sigma-Aldrich) below the critical micelle concentration. After overnight dialysis against 1L dialysis buffer at 4°C to remove the detergent, SM-2 bio-beads (#1523920, Bio-Rad Laboratories, Hercules, CA, USA) were added to the sample to remove any remaining n-octyl glucoside. The solution was then centrifuged at 10,000 × g to remove the protein/lipid aggregates, and the final lipid concentrations of both the T- and V-liposomes were adjusted to 1 mM with a lipid-to-protein ratio of 50:1.
A total lipid mixing assay using the T- and V-liposomes was performed as described previously with minor modifications ([8]). […] The fusion was monitored using the dequenching of NBD fluorescence signal (excitation 465 nm/emission 530 nm). After at least 80 min of fusion, the maximum NBD signal was obtained by adding 0.1% Triton X-100™. All the lipid-mixing experiments were performed at 37°C.

[3] = target: T2, SN23-Syn4-Vp8 SNARE complex (Rattus norvegicus, UniProt O70377+Q08850+Q9WUF4); assay: as above; type: biochemical; details: for inhibition of membrane fusion, peptide added before preincubation: peptide added before preincubation of T- and V-liposomes at 4°C overnight (Figure 4A)
T2 construct: Syn4 (amino acids 1–298); SNAP-23 (amino acids 1–210); VAMP8 (amino acids 1–100); GST (N, cleaved yes); made in house; host or cells: Escherichia coli Rosetta(DE3)pLysS
T2 sequence (Q08850 1-298): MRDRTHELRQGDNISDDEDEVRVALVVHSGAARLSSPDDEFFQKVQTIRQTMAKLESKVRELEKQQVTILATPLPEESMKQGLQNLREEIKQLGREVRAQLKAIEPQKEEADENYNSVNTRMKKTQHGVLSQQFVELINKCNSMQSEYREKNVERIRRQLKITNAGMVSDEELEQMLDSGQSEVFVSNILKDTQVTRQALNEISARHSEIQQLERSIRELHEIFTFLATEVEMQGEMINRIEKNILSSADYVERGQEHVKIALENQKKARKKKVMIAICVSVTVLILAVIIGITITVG
T2 sequence (O70377 1-210): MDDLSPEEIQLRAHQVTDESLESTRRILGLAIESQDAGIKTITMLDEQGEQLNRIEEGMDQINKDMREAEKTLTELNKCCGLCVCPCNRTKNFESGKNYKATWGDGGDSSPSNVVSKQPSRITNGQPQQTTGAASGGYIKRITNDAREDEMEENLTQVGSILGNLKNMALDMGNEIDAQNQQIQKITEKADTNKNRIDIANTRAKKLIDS
T2 sequence (Q9WUF4 1-100): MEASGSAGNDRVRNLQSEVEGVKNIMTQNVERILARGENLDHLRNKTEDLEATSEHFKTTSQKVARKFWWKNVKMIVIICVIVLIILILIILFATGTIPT
Text: as §1, §2, §3
A total lipid mixing assay using the T- and V-liposomes was performed as described previously with minor modifications ([8]). Briefly, peptide inhibitors were applied to the T-vesicles at the indicated concentrations and then the T-vesicles were mixed with the V-vesicles in a 384-well plate for the initiation of fusion, with a T- to V-vesicle volume ratio of 9:1. The fusion was monitored using the dequenching of NBD fluorescence signal (excitation 465 nm/emission 530 nm). After at least 80 min of fusion, the maximum NBD signal was obtained by adding 0.1% Triton X-100™. All the lipid-mixing experiments were performed at 37°C.

[4] = target: T2, SN23-Syn4-Vp8 SNARE complex; assay: as above; type: biochemical; details: peptide added after preincubation of T- and V-liposomes at 4°C overnight (partially zippered SNAREs) (Figure 4A)
RBL-2H3 mast cells [5] = assay: Degranulation assay, histamine release (enzyme immunoassay); type: cell-based, rat; details: for inhibition of histamine release: PTD-conjugated peptide without SLO (LY294002 as positive control), DNP-IgE sensitized, DNP-BSA stimulation, no A23187 pretreatment, three independent experiments (Figure 2C)
SN23-Syn4-Vp2 complex = target: T3, SN23-Syn4-Vp2 complex (Rattus norvegicus, UniProt O70377+P63045+Q08850); assay: Co-immunoprecipitation of SNARE complexes in activated RBL-2H3 cells, anti-SNAP-23 blot; type: cell-based; details: peptides added to the medium after A23187 pretreatment; IP of Vp2, blot anti-SNAP-23 (Figure 4C)
T3 construct: Lysates of RBL-2H3 cells; endogenous in cells; host or cells: RBL-2H3 (ATCC CRL-2256)
Method: Lysates of RBL-2H3 cells (0.5–1 × 10^6 cells), which were obtained by the addition of 1 mL lysis buffer (50 mM Tris–HCl, 150 mM NaCl, 1% Triton X-100™, 1 mM EDTA, pH 7.5) supplemented with a protease inhibitor cocktail (Calbiochem®, Merck Millipore, Billerica, MA, USA), were centrifuged at 13,000 g at 4°C to remove cell debris and precleared with 100 µL protein G Sepharose® (GE Healthcare) for 2 h at 4°C. The precleared lysates were incubated with antibodies against SNARE proteins (Syn4, SNAP-23, VAMP2, and VAMP8) for 2 h at 4°C for binding, and then the antibody–antigen complexes were precipitated by incubation with a protein G slurry overnight with constant shaking. After an extensive washing step with lysis buffer, an immunoblotting analysis was performed for the precipitates. The immunoprecipitated proteins and cell lysates were electrophoresed on 12% sodium dodecyl sulfate-polyacrylamide gel electrophoresis gels and then transferred to nitrocellulose blotting membranes (GE Healthcare). After blocking the membranes in TBST (10 mM Tris–HCl, 150 mM NaCl, and 0.05% Tween® 20, pH 8) containing 0.5% BSA and 5% skim milk for 1 h at room temperature, primary anti-SNAP-23 antibody (1:1,000 dilution) in TBST supplemented with 1% BSA and 0.01% sodium azide was added and incubated at 4°C overnight. The membranes were washed with TBST, treated with a horseradish peroxidase-conjugated secondary anti-mouse IgG antibody (A4416, Sigma-Aldrich), and visualized using enhanced chemiluminescence solution for the development of a luminescent signal.

NC/Nga mice = assay: DNCB-induced atopic dermatitis-like skin lesions; type: in vivo, mouse
Text: Seven-week-old NC/Nga mice were purchased from the Shizuoka Laboratory Animal Center (Shizuoka, Japan) and allowed to adapt to the environment for a week prior to use. The procedures for the induction of atopic dermatitis-like symptoms in mice using 1-chloro-2,4-dinitro-benzene (DNCB) have been well described previously ([27]). Briefly, the dorsal hair of the mice was shaved 2 days before DNCB administration. For the induction of atopic dermatitis, 1% DNCB was applied to the dorsal skin of the mice twice weekly for 7 days and then 0.2% DNCB was applied thrice weekly for 21 days. The mice were divided into the following […] treatment groups (n = 10 per group): 0.3 and 3% Vp2N/day, 0.3 and 3% Vp8N/day, 0.1% dexamethasone/day, and vehicle only, dorsally administered from 9 to 13 weeks of age. As a negative control for atopic dermatitis, NC/Nga mice that were not treated with DNCB were maintained under pathogen-free conditions. Laboratory animal breeding management was based on the “Guide for the Care and Use of Laboratory Animals,” and all experiments were approved by the Institutional Animal Care and Use Committees of Gyeonggi Institute of Science & Technology.

[6] = inhibitor applied to T-vesicles, T:V 9:1, 37°C, NBD dequenching, Vp2S/Vp8S at 10 µM, three independent experiments (Figure 3B-D)
[7] = cells pretreated with A23187, sensitized with DNP-IgE, then PTD-conjugated peptide (Figure 4B)

T1 sequence (P63045 whole entry, one chain of several, the tested form may be a part): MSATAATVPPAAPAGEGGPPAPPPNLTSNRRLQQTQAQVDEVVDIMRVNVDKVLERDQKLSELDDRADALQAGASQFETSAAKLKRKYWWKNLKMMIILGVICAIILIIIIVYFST
T3 sequence (P63045 whole entry, one chain of several): as the sequence (P63045 whole entry, one chain of several, the tested form may be a part) above

DQINKDMREAEKTLTEL [SN23C, 17-mer peptide, C-terminal region of SNAP-23 SNARE motif SN23]
inhibition of mast cell degranulation with versus without A23187 pretreatment (RBL-2H3 mast cells [1]): did not inhibit degranulation regardless of whether the pretreatment with A23187 was performed
inhibition of membrane fusion, peptide added after preincubation [2]: did not inhibit membrane fusion regardless of preincubation
inhibition of membrane fusion, peptide added before preincubation [2]: did not inhibit membrane fusion regardless of preincubation
inhibition of membrane fusion, peptide added before preincubation [3]: did not inhibit membrane fusion regardless of preincubation
inhibition of membrane fusion, peptide added after preincubation [4]: did not inhibit membrane fusion regardless of preincubation

EHFKTTSQKVARKFWWK [Vp8C, 17-mer peptide, C-terminal region of VAMP8 SNARE motif]
inhibition of mast cell degranulation with versus without A23187 pretreatment (RBL-2H3 mast cells [1]): did not inhibit degranulation regardless of whether the pretreatment with A23187 was performed
inhibition of membrane fusion, peptide added after preincubation [2]: did not inhibit membrane fusion regardless of preincubation
inhibition of membrane fusion, peptide added before preincubation [2]: did not inhibit membrane fusion regardless of preincubation
inhibition of membrane fusion, peptide added before preincubation [3]: did not inhibit membrane fusion regardless of preincubation
inhibition of membrane fusion, peptide added after preincubation [4]: did not inhibit membrane fusion regardless of preincubation

KIKHVQNQVDEVIDVMQ [Vp4N, 17-mer peptide, N-terminal region of VAMP4 SNARE motif]
reduction of β-hexosaminidase release (RBL-2H3 mast cells [1]): 0–20%
inhibition of histamine release (RBL-2H3 mast cells [5]): 0–20%

QSLDRVTETQAQVDELK [Vp7N, 17-mer peptide, N-terminal region of VAMP7 SNARE motif]
reduction of β-hexosaminidase release (RBL-2H3 mast cells [1]): 0–20%
inhibition of histamine release (RBL-2H3 mast cells [5]): 0–20%

RGENLDHLRNKTEDLEA [Vp8M, 17-mer peptide, middle region of VAMP8 SNARE motif]
inhibition of membrane fusion (lipid mixing) [3, 6]: specific to the SN23-Syn4-Vp8 complex

RRLQQTQAQVDEVVDIM [Vp2N, 17-mer peptide, N-terminal region of VAMP2 SNARE motif]
reduction of β-hexosaminidase release (RBL-2H3 mast cells [1]): did not inhibit
inhibition of mast cell degranulation with versus without A23187 pretreatment (RBL-2H3 mast cells [1]): inhibited mast cell degranulation more efficiently than without pretreatment
inhibition of β-hexosaminidase release after A23187 pretreatment (RBL-2H3 mast cells [1]; [7]): did not inhibit
inhibition of histamine release (RBL-2H3 mast cells [5]): 43%
inhibition of histamine release after A23187 pretreatment (RBL-2H3 mast cells [5]; [7]): dramatically reduced
inhibition of membrane fusion (lipid mixing) [2, 6]: efficiently inhibited
inhibition of membrane fusion, peptide added after preincubation [2]: inhibitory activities significantly diminished
inhibition of membrane fusion, peptide added before preincubation [2]: inhibited the membrane fusion driven only by their cognate SNARE complexes
SNARE complex formation in cells (amount of SN23-Syn4-Vp2 complex) (SN23-Syn4-Vp2 complex): reduced
epidermal thickness (NC/Nga mice; 0.3 and 3% peptide/day dorsally for 4 weeks, n = 10 per group, versus DNCB/vehicle-treated group (Figure 5C)): significantly reduced
atopic dermatitis features (acanthosis, hypergranulosis, hyperkeratosis) in hematoxylin and eosin-stained sections (NC/Nga mice; 0.3 and 3% peptide/day dorsally, 9 to 13 weeks of age, n = 10 per group, compared with 0.1% dexamethasone/day group (Figure 5B)): clearly alleviated to a similar extent
ear thickness (NC/Nga mice; 0.3 and 3% peptide/day or 0.1% dexamethasone/day for 4 weeks, n = 10 per group (Figure 5D)): reduced
